Results from US5270339A, “Phenoxybenzene derivative” (Kanagafuchi Kagaku Kogyo Kabushiki Kaisha, priority 1991, dated 1993).
Counter-ions that a name gives are not always drawn.

Tests used:
[1] = system: experimental amnesia in mice induced by cycloheximide; test: Anti-amnesic effect: passive avoidance task (step-through), cycloheximide-induced amnesia; format: in vivo, ddY male mice; conditions: for Step-through latency: mean of group; for responders at 3 mg/kg / responders at 1 mg/kg: Mus musculus, mice with latency > 100 seconds, read-out: Ratio of memory
Description: As experimental animals, Wistar male rats and ddY male mice were used for the tests after they were housed for a week under every 12 hours' dark-light cycle at room temperature of 24° to 26° C.
The effect on experimental amnesia in mice induced by cycloheximide was evaluated.
The experiment was carried out using an experimental apparatus of passive avoidance task for mice (made by Ohara-ika-sangyo K. K.) comprising a box divided into the two compartments of dark and light. That is, the dark compartment [a box having a reverse trapezoid cross section (height: 8 cm, base line: 5 cm, oblique line: 9.5 cm) and having the length of 14 cm] was shield from a light with a black plastic case and was floored with stainless grids for giving an electrical shock so that an electricity might be turned on a determined time after interception of a photobeam placed in the dark compartment. The light compartment made of transparent plastic (a box of the same shape as that of the dark compartment having the length of 16 cm, lightened from a location spaced 25 cm above by a 60 W electric lamp) was provided adjacent to the dark compartment. Between the two compartments, there was provided a circular entrance having the diameter of 3 cm with a guillotine door which could be opened and closed. By using the above-mentioned dark-light box, the experiment was carried out according to the following procedure.
A mouse (5 week-old) previously conditioned in the dark-light box was put in the light compartment and the guillotine door was opened. Three seconds after the mouse moved into the dark compartment and interrupted the photobeam, 0.3 mA electrical shock was given to limbs for 3 seconds from the floor grid (aquisition trial). Just after the mouse rushed into the light compartment, the door was shut and the […] in the light compartment was picked out to return to his home cage. After 24 hours, the mouse was placed again in the light compartment and the period from the opening of the guillotine door to the time the mouse completely entered the dark compartment was recorded maximally 300 seconds as a step-through latency (retention trial).
The amnesia was induced by subcutaneous injection of cycloheximide (120 mg/kg) dissolved in saline 10 minutes before the aquisition trial. As a control, the same amount of saline alone was administered. […]
A ratio of number of mice showing the step-through latency of more than 100 seconds in the group was defined as a ratio of memory for convenience's sake.
The step-through latency in Table 2 was the mean value for each treated group.

[2] = Acute toxicity test, oral; format: in vivo, ddY male mice; conditions: mouse, in vivo, ddY mice, 2 weeks observation
Description: With respect to the compounds 1 to 86 shown in Table 1 as test compounds, the acute toxicity was examined using ddY mice according to the following method.
In each group, six male ddY mice weighing 27 to 30 g were employed. The compounds 1 to 86 suspended in an aqueous solution of 0.5% sodium carboxymethylcellulose were administered orally in a volume of 0.1 ml/10 g body weight. […] The LD50 (mg/kg) values were estimated from the ratio of the number of dead mice to the number of mice used.

Row | SMILES | Step-through latency ([1]; 3 mg/kg oral) [s] | responders at 3 mg/kg ([1]; 3 mg/kg oral) [%] | LD50 at 336 h [2] [mg/kg] | Step-through latency ([1]; 1 mg/kg oral) [s] | responders at 1 mg/kg ([1]; 1 mg/kg oral) [%]
1 | CCN1C(=O)C(=Cc2cccc(Oc3ccccc3)c2)CC1C (stereo not drawn) [Compound 53] | 114 | 50 | ≥ 500 | – | –
2 | CCOC(=O)CN1CCC(=Cc2cccc(Oc3ccccc3)c2)C1=O [Compound 28] | 100 | 50 | ≥ 500 | – | –
3 | O=C1C(=Cc2cccc(Oc3ccccc3)c2)CCN1CCc1ccccc1 [Compound 51] | – | – | ≥ 500 | – | –
4 | CN(C)N1CCC(=Cc2cccc(Oc3ccccc3)c2)C1=O [Compound 38] | – | – | ≥ 500 | 100 | 50
5 | COc1ccc(C(=O)N2CCC(=Cc3cccc(Oc4ccccc4)c3)C2=O)cc1 [Compound 43] | 179 | 100 | ≥ 500 | – | –
6 | CCN1CCC(=Cc2cccc(Oc3ccc(C)cc3)c2)C1=O [Compound 15] | – | – | ≥ 500 | – | –
7 | C(=C1CCN(C2CC2)C1)c1cccc(Oc2ccccc2)c1 [Compound 85] | – | – | ≥ 500 | 97 | 25
8 | C1=Cc2cccc(OCC3CNCCO3)c2C1 (stereo not drawn) [Indeloxazine hydrochloride, reference compound] | 131 | 43 | – | – | –
9 | S=C1NCCC1=Cc1cccc(Oc2ccccc2)c1 [Compound 86] | 70 | 25 | ≥ 500 | – | –
10 | CN1CCC(=Cc2cccc(Oc3ccccc3)c2)C1=O [Compound 9] | 151 | 75 | ≥ 500 | – | –
11 | CC(=O)CN1CCC(=Cc2cccc(Oc3ccccc3)c2)C1=O [Compound 45] | – | – | ≥ 500 | 169 | 50
12 | CCOC1CC(=Cc2cccc(Oc3ccccc3)c2)C(=O)N1 (stereo not drawn) [Compound 56] | 129 | 63 | ≥ 500 | – | –
13 | CCCCN1CCC(=Cc2cccc(Oc3ccccc3)c2)C1 [Compound 68] | – | – | ≥ 500 | 179 | 75
14 | CCN1CCC(=Cc2cccc(Oc3ccc(C)cc3)c2)C1 [Compound 19] | – | – | ≥ 500 | 177 | 75
15 | O=C1NCCC1=Cc1ccc(Oc2ccccc2)cc1 [Compound 2] | 188 | 75 | ≥ 500 | – | –
16 | CCN1CC(C)C(=Cc2cccc(Oc3ccccc3)c2)C1=O (stereo not drawn) [Compound 61] | – | – | ≥ 500 | 90 | 50
17 | CCCCN1CCC(=Cc2cccc(Oc3ccccc3)c2)C1=O [Compound 12] | 152 | 63 | ≥ 500 | – | –
18 | CCC1C(=Cc2cccc(Oc3ccccc3)c2)CCN1C(C)=O (stereo not drawn) [Compound 80] | – | – | ≥ 500 | 100 | 50
19 | CN(C)C(=O)CN1CCC(=Cc2cccc(Oc3ccccc3)c2)C1=O [Compound 35] | – | – | ≥ 500 | 103 | 50
20 | O=C1C(=Cc2cccc(Oc3ccccc3)c2)CCN1CCO [Compound 25] | – | – | ≥ 500 | – | –
21 | CCN1CCC(Cc2cccc(Oc3ccccc3)c2)C1 (stereo not drawn) [Compound 83] | – | – | ≥ 500 | 188 | 100
22 | O=C(C=Cc1ccccc1)N1CCC(=Cc2cccc(Oc3ccccc3)c2)C1=O [Compound 44] | 132 | 38 | ≥ 500 | – | –
23 | Cc1ccc(Oc2cccc(C=C3CCNC3=O)c2)cc1 [Compound 4] | – | – | ≥ 500 | – | –
24 | CCCCCCN1CCC(=Cc2cccc(Oc3ccccc3)c2)C1=O [Compound 13] | 132 | 38 | ≥ 500 | – | –

Row | SMILES | Step-through latency ([1]; 3 mg/kg oral) [s] | responders at 3 mg/kg ([1]; 3 mg/kg oral) [%] | LD50 at 336 h [2] [mg/kg] | Step-through latency ([1]; 1 mg/kg oral) [s] | responders at 1 mg/kg ([1]; 1 mg/kg oral) [%]
25 | CCN1CCC(=Cc2ccc(Oc3ccccc3)cc2)C1=O [Compound 14] | 100 | 25 | ≥ 500 | – | –
26 | O=C1C(=Cc2cccc(Oc3ccccc3)c2)CCN1C1CC1 [Compound 17] | – | – | ≥ 500 | – | –
27 | OCCN1CCC(=Cc2cccc(Oc3ccccc3)c2)C1 [Compound 71] | – | – | ≥ 500 | 212 | 75
28 | O=C1C(=Cc2cccc(Oc3ccccc3)c2)CCN1Cc1ccccc1 [Compound 48] | 117 | 63 | ≥ 500 | – | –
29 | O=C1NCCC1Cc1cccc(Oc2ccccc2)c1 (stereo not drawn) [Compound 81] | – | – | ≥ 500 | 70 | 25
30 | CC1CC(=Cc2cccc(Oc3ccccc3)c2)C(=O)N1 (stereo not drawn) [Compound 52] | 120 | 50 | ≥ 500 | – | –
31 | O=C1NC(CO)CC1=Cc1cccc(Oc2ccccc2)c1 (stereo not drawn) [Compound 58] | – | – | ≥ 500 | 111 | 50
32 | Nc1cc(C=C2CCNC2=O)ccc1Oc1ccccc1 [Compound 8] | 118 | 38 | ≥ 500 | – | –
33 | CCOC1CC(=Cc2cccc(Oc3ccccc3)c2)C(=O)N1CC (stereo not drawn) [Compound 57] | 157 | 50 | ≥ 500 | – | –
34 | CNC(=O)CN1CCC(=Cc2cccc(Oc3ccccc3)c2)C1=O [Compound 34] | – | – | ≥ 500 | – | –
35 | O=C1C(=Cc2cccc(Oc3ccccc3)c2)CCN1c1ccc(F)cc1F [Compound 47] | – | – | ≥ 500 | – | –
36 | CCC1NCCC1=Cc1cccc(Oc2ccccc2)c1 (stereo not drawn) [Compound 77] | – | – | ≥ 500 | – | –
37 | CC1CNC(=O)C1=Cc1cccc(Oc2ccccc2)c1 (stereo not drawn) [Compound 60] | – | – | ≥ 500 | – | –
38 | NCCN1CCC(=Cc2cccc(Oc3ccccc3)c2)C1=O [Compound 39] | – | – | ≥ 500 | – | –
39 | CCN1CCC(=Cc2ccc(Oc3ccccc3)cc2)C1 [Compound 18] | – | – | ≥ 500 | – | –
40 | CCOC(=O)N1CCC(=Cc2cccc(Oc3ccccc3)c2)C1 [Compound 72] | – | – | ≥ 500 | – | –
41 | C=CN1CCC(=Cc2cccc(Oc3ccccc3)c2)C1=O [Compound 21] | – | – | ≥ 500 | – | –
42 | NC(=O)N1CCC(=Cc2cccc(Oc3ccccc3)c2)C1=O [Compound 30] | – | – | ≥ 500 | – | –
43 | CCN1C(=O)C(=Cc2cccc(Oc3ccccc3)c2)CC1O (stereo not drawn) [Compound 54] | – | – | ≥ 500 | – | –
44 | NC(=O)CCN1CCC(=Cc2cccc(Oc3ccccc3)c2)C1=O [Compound 33] | – | – | ≥ 500 | – | –
45 | C(=C1CCN(CCOC2CCCCO2)C1)c1cccc(Oc2ccccc2)c1 (stereo not drawn) [Compound 70] | – | – | ≥ 500 | – | –
46 | O=C(O)CN1CCC(=Cc2cccc(Oc3ccccc3)c2)C1=O [Compound 29] | – | – | ≥ 500 | – | –
47 | O=C1C(=Cc2cccc(Oc3ccccc3)c2)CCN1CCCl [Compound 27] | – | – | ≥ 500 | – | –
